Earlier results on 1 compound are cited in patent US20170196789A1, “REDUCTION OF ORAL AND EPIDERMAL MALODOR IN HUMANS AND ANIMALS” (priority 2014, published 2017).

The conditions of series [1]: chlorhexidine exposure, current animal research.
For series [2] the following is noted: in vivo.
For series [3] the following is noted: after adhesion to the mucus membrane surface.

For `[H]/N=C(\N/C(=N/[H])NCCCCCCNC(=N)NC(=N)Nc1ccc(Cl)cc1)Nc1ccc(Cl)cc1` [chlorhexidine, Chlorhexidine], the “toxic and/or cancerous effects in animals” value in series [1] was “does not demonstrate any evidence of toxic and/or cancerous effects”. Besides, the “absorption through the digestive system” value in series [2] was “minimal”. For the same compound, the “share of the total consumed amount remaining in the oral cavity” value in series [3] is given as “Approximately thirty”.
